Paper PMC10878086, “An RNA replicon system to investigate promising inhibitors of feline coronavirus” (Journal of Virology, 2024)
pIC50: −log10 of the molar value. Where “and” joins values, the source holds several entries; their conditions need not be identical. Identical values can stand only once. Entries after “also recorded” stand apart in the source; their conditions may differ. Counter-ions that a name gives are not always drawn. Like-named read-outs stand apart in the source and are kept apart here.

How the values were obtained:
[1] = system: recFCoV-GFP (serotype I FIPV strain Black); experiment: Inhibitor test with recFCoV-GFP-infected Fcwf-4 cells, viral titers in supernatant (TCID50); format: cell-based, feline infectious peritonitis virus; conditions: read-out: IC50 recFCoV-GFP viral titers
Text: (§1) Finally, we assessed GC376 and Remdesivir individually or in combination in a virus infection system. We used the previously described recombinant recFCoV-GFP that is based on the laboratory-adapted serotype I FIPV strain Black and contains the GFP gene as a replacement for the accessory genes 3a–c ([39]). Using this virus, we could measure inhibition by assessing GFP expression or by virus titration. However, the assessment of GFP expression by measuring the median fluorescent intensity, as we did for BHK-F-rep cells, was not possible since recFCoV-GFP-infected Felis catus whole fetus 4 (Fcwf-4) cells died before the reduction of GFP expression was observable. Instead, we determined the number of GFP-positive cells to monitor inhibition (Fig. 5A through C). In parallel, we determined the virus titers released into the cell culture supernatant from inhibitor-treated and infected cells (Fig. 5A through C). […] The results are shown in Fig. 5C and can be compared with Fig. 4A (BHK-F-Rep inhibition) and IC50 values for the different experimental systems are shown in Table 2. […]
All conditions were tested in triplicates on three different days always including a negative control. […] The selectivity index (SI) was calculated in Microsoft Excel 2016 as follows: SI = CC50/IC50.

[2] = system: recFCoV-GFP (serotype I FIPV strain Black); experiment: Inhibitor test with recFCoV-GFP-infected Fcwf-4 cells, flow cytometry of GFP-positive cells; format: cell-based, feline infectious peritonitis virus; conditions: read-out: IC50 recFCoV-GFP flow cytometry
Text: as §1
To assess the GFP expression in BHK and Fcwf-4 cells, the supernatant was removed, the cells were washed once with PBS and then detached with trypsin and transferred to a 96-well plate. […] Samples were acquired in Cytek Aurora with SpectroFlo Software Version 3.1.0 and analyzed using FlowJo software (FlowJo_v108.1). […]

BHK-F-Rep cells = experiment: In vitro cytotoxicity assay (CytoTox-Glo) on BHK-F-Rep cells; format: cell-based, hamster
Experimental: (§2) To define cytotoxic concentrations of the individual inhibitors, cytotoxicity assay with the CytoTox-Glo Cytotoxicity Assay (Promega) was performed according to the manufacturer’s instructions. As a positive control, 75 µg/well of cycloheximide was used. The inhibitors were diluted in DMSO to concentrations so that 2 µL/well could be added to reach the tested concentrations. For luminescence detection, a Hidex Sense with the HidexPlateReader Software 1.0.0 was used. Detection parameters were set for luminescence detection with an infrared cutoff of 1 second. As described by Promega, the difference of viable vs dead cells was calculated in Microsoft Excel 2016, and 50% of cytotoxic concentration (CC50) was determined in GraphPad Prism version 9.3.1 for Windows. The data were fitted to a nonlinear regression curve with log(inhibitor) vs normalized response with variable slope.

[3] = system: serotype I FCoV replicon RNA in BHK-F-Rep cells; experiment: microbe, parasite or virus in culture; format: cell-based, feline coronavirus (serotype I FECV field strain); conditions: for pIC50: BHK-F-Rep cells, median GFP intensity
Experimental: The BHK-F-Rep cells would specifically allow the evaluation of inhibitors that target viral replication, which includes basic processes such as RNA synthesis and viral polyprotein processing. […] GFP expression was assessed by flow cytometry. […] In addition to GFP detection, immunofluorescence staining of the N-protein was performed as a control of the replication inhibition in an inhibitor experiment (Fig. 2D).
For each inhibitor test, the BHK-F-Rep was cultured in T75 or T150 flasks, washed once with PBS, cells detached with Gibco TrypLE Express (Trypsin; Thermo Fisher Scientific), and then seeded in 12-well plates (25,000 cells/well) in 1 mL/well of cell-culture medium (MEM +10% FBS +50 U/mL Pen/Strep). Directly after seeding, the inhibitor was added to the cells. The plates were incubated for 96 hours at 37°C with 5% CO2.
To assess the GFP expression in BHK and Fcwf-4 cells, the supernatant was removed, the cells were washed once with PBS and then detached with trypsin and transferred to a 96-well plate. The plate was centrifuged at 1,700 rpm for 5 minutes and the supernatant discarded. Cells were once washed again with PBS and again centrifuged at 1,700 rpm for 5 minutes and the supernatant was discarded. For the replicon conditions, the cells were then stained with the LIVE/DEAD Fixable Aqua Dead Cell Stain Kit for 405 nm excitation (Invitrogen) according to the manufacturer’s instructions. As the dead cell control, one of the samples was placed at 60°C for 20 minutes and then stained. After staining, the cells were washed with PBS and centrifuged (1,700 rpm for 5 minutes), and the supernatant was discarded. For the Fcwf-4 cells infected with the recFCoV-GFP, the staining and washing step was not performed. Then, all the cells were washed with PBS before being resuspended in 200 µL PBS and transferred to Falcon 5 mL round-bottom tubes with cell strainer cap (Corning Incorporated) and kept in the dark on ice. Samples were acquired in Cytek Aurora with SpectroFlo Software Version 3.1.0 and analyzed using FlowJo software (FlowJo_v108.1).
Instead, to monitor inhibition, we determined the percent of GFP-positive cells. In either case, the median intensity of the GFP signal or the percentage of GFP-positive cells was normalized to the measurements of untreated conditions, by defining the untreated results of each triplicate as 100%. The value was then subtracted by 100 to get the value representing the percentage of inhibition.
All conditions were tested in triplicates on three different days always including a negative control. Statistical analysis and generation of graphs were performed using GraphPad Prism version 9.3.1 for Windows. The same as CC50, 50% inhibitory concentration (IC50) was determined in GraphPad Prism version 9.3.1 for Windows.

[4] = In vitro cytotoxicity assay (CytoTox-Glo) on BHK-F-Rep cells; format: cell-based, hamster; conditions: hamster
Experimental: as §2

[5] = Cell viability testing in recFCoV-GFP infected Fcwf-4 cells; format: cell-based; conditions: cat (Felis catus)
Text: Read-out as with the BHK-F-Rep cells done via flow cytometry and detection of GFP-positive cells (relative Inhibition) including IC50 values are shown in black with the left y-axis. As with the BHK-F-Rep cells, data shown on cell viability testing in the recFCoV-GFP infected Fcwf-4 cells are shown in black with the right y-axis including CC50 values. Additional data on viral titers of the recFCoV-GFP infected Fcwf-4 cells treated with the inhibitors and corresponding IC50 values are shown in red. The black and red lines in the graphs represent the mean value of the data collected from three independent experiments of individual drugs or their combination, respectively. The gray and red shaded areas represent the standard error of the mean.
To define cytotoxic concentrations of the individual inhibitors, cytotoxicity assay with the CytoTox-Glo Cytotoxicity Assay (Promega) was performed according to the manufacturer’s instructions. As a positive control, 75 µg/well of cycloheximide was used. […] For luminescence detection, a Hidex Sense with the HidexPlateReader Software 1.0.0 was used. Detection parameters were set for luminescence detection with an infrared cutoff of 1 second. As described by Promega, the difference of viable vs dead cells was calculated in Microsoft Excel 2016, and 50% of cytotoxic concentration (CC50) was determined in GraphPad Prism version 9.3.1 for Windows. […]

[6] = Alphacoronavirus 1, 96 h, 96 hours, flow cytometry

CC(C)C[C@H](NC(=O)OCc1ccccc1)C(=O)N[C@@H](CC1CCNC1=O)C(O)S(=O)(=O)O (stereo partly drawn) [GC376]
pIC50 ([1]; Fcwf-4 cells, MOI 0.01, 48 hours, TCID50 of supernatant): 6.00 | pIC50 ([2]; Fcwf-4 cells, MOI 0.01, 48 hours, GFP-positive cells): 6.08 | CC50 (BHK-F-Rep cells): > 200 µM | pIC50 ([3]; 96 hours, flow cytometry, read-out: IC50): > 6.00 and 6.00

CC(C)(C)[C@H](NC(=O)C(F)(F)F)C(=O)N1C[C@H]2[C@@H]([C@H]1C(=O)N[C@H](C#N)C[C@@H]1CCNC1=O)C2(C)C [Nirmatrelvir]
CC50 [4]: > 200 µM | pIC50 [3, 6]: > 6.00 | pIC50 ([3]; 96 hours, flow cytometry): 6.11

CCC(CC)COC(=O)[C@H](C)N[P@](=O)(OC[C@H]1O[C@@](C#N)(c2ccc3c(N)ncnn23)[C@H](O)[C@@H]1O)Oc1ccccc1 [Remdesivir]
pIC50 ([1]; Alphacoronavirus 1, 48 h): 5.82 | pIC50 ([2]; Alphacoronavirus 1, 48 h): 5.94 | CC50 at 48 h [5]: > 200 µM | CC50 [4]: 99.1 µM

CC(C)C[C@H](NC(=O)OCc1ccccc1)C(=O)N[C@@H](C[C@@H]1CCNC1=O)C(O)S(=O)(=O)[O-].[Na+] (stereo partly drawn) [GC376]
GFP expression of BHK-F-Rep cells after treatment (replicon-cured cell line) ([3]; two consecutive treatments of 96 hours with 20 µM): undetectable

CCN(CC)Cc1cc(Nc2ccnc3cc(Cl)ccc23)ccc1O [Amodiaquine, Amodiaquine dihydrochloride]
CC50 [4]: 47.2 µM | inhibitory effect on BHK-F-Rep cells ([3]; 96 hours, flow cytometry, in words): did not observe an inhibitory effect; also recorded: did not show any inhibitory effect | pIC50 [3, 6]: < 4.40
